{"source": "patent US20170368134A1", "about": "“PROTEASOME INHIBITORS FOR TREATING A DISORDER RELATED TO AN ACCUMULATION OF NON-DEGRADED ABNORMAL PROTEIN OR A CANCER” (UNIVERSITÉ D'AIX-MARSEILLE, priority 2015, published 2017)", "format_in_all_cases": "cell-based, human", "key": {"lamin C": {"system": "lamin C", "assay": "Western blot of lamin C protein in HGPS fibroblasts", "conditions": "48 h treatment with MG132 (10 μM)", "protocol": "Total fibroblast proteins were extracted in 200 μL of NP40 Cell Lysis buffer (Invitrogen, Carlsbad, Calif.) containing Protease and Phosphatase Inhibitor Cocktail (Thermo Scientific). Alternatively, cells were lysed with urea (8 M urea, 5 mM dithiothreitol, 150 mM NaCl, 50 mM Tris-Cl pH 7.5, protease and phosphatase Inhibitor Cocktail (Thermo Scientific)). Cells were sonicated twice (30 sec each), incubated at 4° C. for 30 minutes and then centrifuged at 10,000 g for 10 minutes. Protein concentration was evaluated with the bicinchoninic acid technique (Pierce BCA Protein Assay Kit), absorbance at 562 nm is measured using nanodrop 1000 (Thermo Fisher Scientific Inc.) Equal amounts of proteins (40 μg) were loaded onto 10% Tis-Glycine gel (Criterion™ XT precast gel) using XT Tricine running Buffer (Biorad, USA). After electrophoresis, gels were electro transferred onto nitrocellulose membranes or Immobilon-FL polyvinylidene fluoride membranes (Millipore), blocked in Odyssey Blocking Buffer diluted 1:1 in PBS for 1 hour at room temperature, and incubated overnight at 4° C. or 2 hours at room temperature with various primary antibodies. […]"}, "[1]": {"system": "HGPS fibroblasts, HGPS derived iPS-MSC or iPS-VSMC", "assay": "CellTiter-Glo Luminescent Cell Viability Assay", "conditions": "24 h, doses used in this study", "protocol": "HGPS fibroblasts, HGPS derived iPS-MSC or iPS-VSMC viability was measured at 24 h post treatment with MG132 at the indicated concentrations using CellTiter-Glo Luminescent Cell Viability Assay. Results are reported as viability percentage of MG132-treated cells relative to untreated cells."}, "progerin": {"system": "progerin", "assay": "Immunofluorescence of subcellular progerin localization", "conditions": "HGPS cell lines, 48 h MG132 exposure", "protocol": "Cells collected by centrifugation were spread onto polylysine-coated slides by centrifugation (300 rpm for 5 minutes) with a cytospin (Shandon). Cells were then fixed at room temperature for 10 minutes in 2% (w/v) paraformaldehyde in PBS pH 7.2. Slides were stored at −80° C. prior to use. Cells were permeabilized using 100 μL permeabilization buffer (0.5% Triton X-100, 50 mM NaCl, 300 mM sucrose, 20 mM HEPES pH 7.5, 3 mM MgCl2) for 3 minutes at RT. Non-specific antibody binding was blocked with 3% Bovine Serum Albumin in PBS (w/v) (PBS-BSA) for 30 minutes. The permeabilized cells were incubated with the primary antibodies for 3 h at 37° C. After washing, the cells were then incubated with secondary antibodies (A11001, A11058, Life Technologies; 1/400) for 20 minutes at 37° C. Nuclei were stained with DAPI (50 ng/ml) diluted in Vectashield (Abcys) for 10 minutes at RT. Samples were fixed in 4% paraformaldehyde for 5 min. […]\nIt has been reported that the MG132 can lead to PML-NBs component proteins being translocated into the nucleolus. […] Therefore, nucleolus might function as an alternative sequestration site that immobilizes and temporarily stores accumulated progerin when proteasome-dependent degradation is blocked, as the inventors detected PML and LC3B cytosolic colocalization upon 24 h MG132 treatment (data not shown). […]"}, "SRSF-1": {"system": "SRSF-1", "assay": "SRSF-1 levels in HGPS fibroblasts, iPS-MSC and iPS-VSMC", "conditions": "data not shown", "protocol": "Generation of induced pluripotent stem cells (iPS) by reprogramming was carried out using fibroblasts isolated from HGPS patient biopsies performed in the Assistance Publique Hopitaux de Marseille (13-8243) or provided by Coriell Institute (Camden, USA) (AG01972). Cell lines were reprogrammed to iPSC using Yamanaka's original method based on retrovirus-mediated transfection of four transcription factors, namely Oct3/4, Sox2, c-Myc, and Klf4 (41). The iPSC lines were amplified up to the 15th passage before differentiation.\nHGPS iPSC were grown on STO mouse fibroblasts, inactivated with […] mitomycin C, seeded at 30,000/cm2 and grown as previously described (42). For differentiation, iPSC were differentiated into mesenchymal stem cells (MSC-iPSC) using directed protocols for differentiation previously published (43-45). VSMC were obtained from iPSC by fluorescent-activated cell sorting (FACS) separation of CD31+ cells (46)."}}, "note": "Peptide text beside a SMILES is read from it. * marks the point of attachment. Cbz = O=C(OCc1ccccc1)*"}
{"smiles": "CC(C)C[C@@H](C=O)NC(=O)[C@H](CC(C)C)NC(=O)[C@H](CC(C)C)NC(=O)OCc1ccccc1", "note": "[MG132, Z-Leu-Leu-Leu-al] (Cbz-Leu-Leu-Leu-aldehyde)", "values": [{"measurement": "lamin C protein levels", "setting": "lamin C", "result": "increased"}, {"measurement": "viability / mortality", "setting": "[1]", "result": "do not induce significant mortality"}, {"measurement": "subcellular progerin localization", "setting": "progerin", "result": "progerin accumulates into autophagic vacuoles"}, {"measurement": "SRSF-1 levels", "setting": "SRSF-1", "result": "decreased"}]}
